Data published in publication PMC13010972 (Chemical communications (Cambridge, England), 2026).

How the values were obtained:
S. enterica = assay: checkerboard assay with colistin; assay type: cell-based, Salmonella enterica; details: R-1 with colistin; FIC < 0.5 indicates synergy
[1] = system: genes linked to the PhoPQ TCS; details: cited from earlier work
[2] = system: polymyxin-resistant S. enterica strain EG9492; details: co-treatment of resistant strain EG9492s; cited from earlier work

SMILES: Nc1nc2ccc(OC(F)(F)F)cc2s1 [R-1, riluzole]
- fractional inhibitory concentration (FIC) value (S. enterica): 0.28
- expression of genes linked to the PhoPQ TCS [1]: downregulation
- change in the colistin MIC [2]: ~ 8 fold
